Test results taken from PubChem BioAssay (NCI).
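Values below derive from 48-hour exposures of cells grown in 96-well plates, with endpoints linearly interpolated between the two concentrations bracketing the appropriate inhibition level. The concentration for full growth arrest is given as TGI.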

Tests used:
Test in all cases: NCI-60 cell line screen, 48 h
[1] = test system: SK-MEL-2 melanoma
[2] = test system: HCC-2998 colon
[3] = test system: CCRF-CEM leukemia
[4] = test system: SNB-75 CNS
[5] = test system: HOP-92 NSCLC
[6] = test system: UO-31 renal
[7] = test system: SK-MEL-5 melanoma
[8] = test system: SF-539 CNS
[9] = test system: LOX IMVI melanoma
[10] = test system: SN12C renal
[11] = test system: M14 melanoma
[12] = test system: OVCAR-3 ovarian
[13] = test system: SK-OV-3 ovarian
[14] = test system: BT-549 breast
[15] = test system: HCT-116 colon
[16] = test system: HS 578T breast
[17] = test system: MALME-3M melanoma
[18] = test system: SNB-19 CNS
[19] = test system: 786-0 renal
[20] = test system: SF-295 CNS
[21] = test system: KM12 colon
[22] = test system: HCT-15 colon
[23] = test system: PC-3 prostate
[24] = test system: MCF7 breast
[25] = test system: MDA-N
[26] = test system: U251 CNS
[27] = test system: DU-145 prostate
[28] = test system: NCI-H460 lung
[29] = test system: NCI-H226 lung
[30] = test system: RPMI-8226 leukemia
[31] = test system: SW-620 colon
[32] = test system: MDA-MB-435
[33] = test system: IGROV1 ovarian
[34] = test system: HOP-62 NSCLC
[35] = test system: NCI/ADR-RES ovarian
[36] = test system: EKVX NSCLC
[37] = test system: SF-268 CNS
[38] = test system: HT29 colon
[39] = test system: SK-MEL-28 melanoma
[40] = test system: UACC-62 melanoma
[41] = test system: OVCAR-5 ovarian
[42] = test system: A498 renal
[43] = test system: ACHN renal
[44] = test system: MOLT-4 leukemia
[45] = test system: NCI-H522 lung
[46] = test system: T-47D breast
[47] = test system: SR leukemia
[48] = test system: CAKI-1 renal
[49] = test system: OVCAR-4 ovarian
[50] = test system: A549 NSCLC
[51] = test system: RXF 393 renal
[52] = test system: HL-60(TB) leukemia
[53] = test system: MDA-MB-231 breast
[54] = test system: TK-10 renal
[55] = test system: COLO 205 colon
[56] = test system: OVCAR-8 ovarian
[57] = test system: NCI-H23 lung
[58] = test system: DLD-1 colon
[59] = test system: LXFL 529 NSCLC
[60] = test system: DMS 273 small cell lung
[61] = test system: M19-MEL melanoma
[62] = test system: K-562 leukemia
[63] = test system: XF 498 CNS
[64] = test system: KM20L2 colon
[65] = test system: SNB-78 CNS
[66] = test system: UACC-257 melanoma

CSc1nc(SC)c2c(C)cn(COCCOC(=O)c3ccccc3)c2n1
TGI [1]: > 100 µM
TGI [2]: > 100 µM
TGI [3]: > 100 µM
TGI [4]: > 100 µM
TGI [5]: 99.7 µM
TGI [6]: > 100 µM
TGI [7]: > 100 µM
TGI [8]: > 100 µM
TGI [9]: > 100 µM
TGI [10]: > 100 µM
TGI [11]: > 100 µM
TGI [12]: > 100 µM
TGI [13]: > 100 µM
TGI [14]: > 100 µM
TGI [15]: > 100 µM
TGI [16]: > 100 µM
TGI [17]: > 100 µM
TGI [18]: > 100 µM
TGI [19]: > 100 µM
TGI [20]: > 100 µM
TGI [21]: > 100 µM
TGI [22]: > 100 µM
TGI [23]: > 100 µM
TGI [24]: > 100 µM
TGI [25]: > 100 µM
TGI [26]: > 100 µM
TGI [27]: > 100 µM
TGI [28]: > 100 µM
TGI [29]: > 100 µM
TGI [30]: > 100 µM
TGI [31]: > 100 µM
TGI [32]: > 100 µM
TGI [33]: > 100 µM
TGI [34]: > 100 µM
TGI [35]: > 100 µM
TGI [36]: > 100 µM
TGI [37]: > 100 µM
TGI [38]: > 100 µM
TGI [39]: > 100 µM
TGI [40]: > 100 µM
TGI [41]: > 100 µM
TGI [42]: > 100 µM
TGI [43]: > 100 µM
TGI [44]: > 100 µM
TGI [45]: > 100 µM
TGI [46]: 94.5 µM
TGI [47]: > 100 µM
TGI [48]: > 100 µM
TGI [49]: > 100 µM
TGI [50]: > 100 µM
TGI [51]: > 100 µM
TGI [52]: > 100 µM
TGI [53]: > 100 µM
TGI [54]: > 100 µM
TGI [55]: > 100 µM
TGI [56]: > 100 µM
TGI [57]: > 100 µM

CCO/C(O)=c1/s/c(=C(\C#N)c2nc3ccccc3[nH]2)n(-c2ccccc2)c1=N
TGI [1]: > 100 µM
TGI [3]: > 100 µM
TGI [58]: > 100 µM
TGI [4]: > 100 µM
TGI [5]: > 100 µM
TGI [6]: > 100 µM
TGI [7]: > 100 µM
TGI [8]: > 100 µM
TGI [9]: > 100 µM
TGI [10]: > 100 µM
TGI [11]: > 100 µM
TGI [59]: > 100 µM
TGI [12]: > 100 µM
TGI [13]: > 100 µM
TGI [15]: > 100 µM
TGI [17]: > 100 µM
TGI [60]: > 100 µM
TGI [18]: > 100 µM
TGI [19]: > 100 µM
TGI [20]: > 100 µM
TGI [22]: > 100 µM
TGI [26]: > 100 µM
TGI [28]: > 100 µM
TGI [61]: > 100 µM
TGI [29]: > 100 µM
TGI [31]: > 100 µM
TGI [33]: > 100 µM
TGI [34]: > 100 µM
TGI [62]: > 100 µM
TGI [36]: > 100 µM
TGI [37]: > 100 µM
TGI [38]: > 100 µM
TGI [39]: > 100 µM
TGI [40]: > 100 µM
TGI [41]: > 100 µM
TGI [63]: > 100 µM
TGI [42]: > 100 µM
TGI [43]: > 100 µM
TGI [64]: > 100 µM
TGI [65]: > 100 µM
TGI [44]: > 100 µM
TGI [45]: > 100 µM
TGI [48]: > 100 µM
TGI [49]: > 100 µM
TGI [50]: > 100 µM
TGI [51]: > 100 µM
TGI [52]: > 100 µM
TGI [54]: > 100 µM
TGI [55]: > 100 µM
TGI [56]: > 100 µM
TGI [66]: > 100 µM
TGI [57]: > 100 µM
